# Assays:
# Format in all cases: cell-based
# [1] = system: TNF-α; assay: Intracellular TNF-α in human mononuclear cells (flow cytometry); settings: for % TNFα- producing cells: DMSO 10.1; for inhibition at 12.5 µg/mL / inhibition at 25 µg/mL / inhibition at 3.125 µg/mL / inhibition at 6.25 µg/mL: Homo sapiens
# Protocol: (§1) [table] Incubation condition: Cells and mitogen added at the same time and the compound solution added immediately after in polypropylene tubes and incubated at 37° C. in CO2 incubator overnight. The following day the cells and the supernatant were harvested for TNF-α determination. Incubation condition: Cells and mitogen added at the same time and the compound solution added immediately after in polypropylene tubes and incubated at 37° C. in CO2 incubator overnight. The following day the cells and the supernatant were harvested for TNF-α determination.
# [2] = system: TNF-α; assay: Extracellular TNF-α of human mononuclear cells (supernatant); settings: for inhibition at 3.125 µg/mL: compound 3.125 μg/ml; for inhibition at 6.25 µg/mL: compound 6.25 μg/ml; for inhibition at 12.5 µg/mL: compound 12.5 μg/ml
# Protocol: as §1, with “Incubation” for “[table] Incubation”
# [3] = system: IFN-γ; assay: IFN-γ producing human mononuclear cells (PMA+inomycin); settings: for % IFN-γ producing cells / inhibition at 12.5 µg/mL: 1b Experiment 2, PMA+inomycin, 12.5 μg/ml; for % IFN-γ producing cells: DMSO Control 16.4; for inhibition of IFN-γ production: concentration of 12.5 μg/ml; for inhibition at 12.5 µg/mL: Homo sapiens
# Protocol: Mitogens: LPS at a final conc. of 1 μg/ml for TNF-α and PMA+inomycin for IFN-γ.
# Incubation condition: Cells and mitogen added at the same time and the compound solution added immediately after in polypropylene tubes and incubated at 37° C. in CO2 incubator overnight. The following day the cells and the supernatant were harvested for TNF-α determination.
# [4] = 1b Experiment 1, LPS 0.5 μg/ml, compound 12.5 μg/ml, DMSO 13.8
# [5] = 1b Experiment 1, LPS 0.5 μg/ml, compound 25.0 μg/ml, DMSO 13.8
# [6] = 1b Experiment 2, LPS 1 μg/ml, compound 3.125 μg/ml, DMSO 4.0
# [7] = 1b Experiment 2, LPS 1 μg/ml, compound 6.25 μg/ml, DMSO 4.0
# [8] = 1b Experiment 2, LPS 1 μg/ml, compound 12.5 μg/ml, DMSO 4.0
# [9] = 1b Experiment 3, LPS 1 μg/ml, compound 3.125 μg/ml
# [10] = 1b Experiment 3, LPS 1 μg/ml, compound 6.25 μg/ml
# [11] = 1b Experiment 3, LPS 1 μg/ml, compound 12.5 μg/ml
# [12] = 1b Experiment 4, LPS 1 μg/ml, compound 3.125 μg/ml, DMSO 14.6
# [13] = 1b Experiment 4, LPS 1 μg/ml, compound 6.25 μg/ml, DMSO 14.6
# [14] = 1b Experiment 4, LPS 1 μg/ml, compound 12.5 μg/ml, DMSO 14.6
# [15] = 1b Experiment 1, LPS 0.5 μg/ml, compound 12.5 μg/ml, read-out: % inhibition
# [16] = 1b Experiment 1, LPS 0.5 μg/ml, compound 25.0 μg/ml
# [17] = 1b Experiment 2, LPS 1 μg/ml, compound 3.125 μg/ml
# [18] = 1b Experiment 2, LPS 1 μg/ml, compound 6.25 μg/ml, read-out: Intracellular % inhibition
# [19] = 1b Experiment 2, LPS 1 μg/ml, compound 12.5 μg/ml, read-out: Intracellular % inhibition
# [20] = 1b Experiment 3, LPS 1 μg/ml, compound 6.25 μg/ml, read-out: Intracellular % inhibition
# [21] = 1b Experiment 3, LPS 1 μg/ml, compound 12.5 μg/ml, read-out: Intracellular % inhibition
# [22] = 1b Experiment 4, LPS 1 μg/ml, compound 3.125 μg/ml
# [23] = 1b Experiment 4, LPS 1 μg/ml, compound 6.25 μg/ml, read-out: Intracellular % inhibition
# [24] = 1b Experiment 4, LPS 1 μg/ml, compound 12.5 μg/ml, read-out: Intracellular % inhibition
SMILES,"% TNF-α producing cells [1, 4] [%]","% TNF-α producing cells [1, 5] [%]","% TNF-α producing cells [1, 6] [%]","% TNF-α producing cells [1, 7] [%]","% TNF-α producing cells [1, 8] [%]","% TNFα- producing cells [1, 9] [%]","% TNFα- producing cells [1, 10] [%]","% TNFα- producing cells [1, 11] [%]","% TNF-α producing cells [1, 12] [%]","% TNF-α producing cells [1, 13] [%]","% TNF-α producing cells [1, 14] [%]","inhibition at 12.5 µg/mL [1, 15] [%]","inhibition at 25 µg/mL [1, 16] [%]","inhibition at 3.125 µg/mL [1, 17] [%]","inhibition at 6.25 µg/mL [1, 18] [%]","inhibition at 12.5 µg/mL [1, 19] [%]","inhibition at 3.125 µg/mL [1, 9] [%]","inhibition at 6.25 µg/mL [1, 20] [%]","inhibition at 12.5 µg/mL [1, 21] [%]","inhibition at 3.125 µg/mL [1, 22] [%]",further results
"COc1cc(/C=C/C(=O)c2ccc(C3CCCCC3)cc2)cc(OC)c1 [PH104, 3,5-dimethoxy-4′-cyclohexylchalcone]",2.4,1.4,2.4,1.0,1.7,2.9,1.1,1.2,3.0,0.8,1.0,83,90,40,75,58,71,89,88,79,"inhibition at 6.25 µg/mL [1, 23]: 95%; inhibition at 12.5 µg/mL [1, 24]: 93%; inhibition at 3.125 µg/mL ([2]; 1b Experiment 2, LPS 1 μg/ml): 82%; inhibition at 6.25 µg/mL ([2]; 1b Experiment 2, LPS 1 μg/ml): 90%; inhibition at 12.5 µg/mL ([2]; 1b Experiment 2, LPS 1 μg/ml): 93%; inhibition at 3.125 µg/mL ([2]; 1b Experiment 3, LPS 1 μg/ml): 54%; inhibition at 6.25 µg/mL ([2]; 1b Experiment 3, LPS 1 μg/ml): 70%; inhibition at 12.5 µg/mL ([2]; 1b Experiment 3, LPS 1 μg/ml): 76%; inhibition at 3.125 µg/mL ([2]; 1b Experiment 4, LPS 1 μg/ml): 0%; inhibition at 6.25 µg/mL ([2]; 1b Experiment 4, LPS 1 μg/ml): 78%; inhibition at 12.5 µg/mL ([2]; 1b Experiment 4, LPS 1 μg/ml): 86%; % IFN-γ producing cells [3]: 17.0%; inhibition of IFN-γ production ([3]; 1b Experiment 3): no inhibition; inhibition of IFN-γ production ([3]; 1b Experiment 4): no inhibition; inhibition at 12.5 µg/mL [3]: 0%"
"COc1cc(/C=C/C(=O)c2ccccc2F)cc(OC)c1 [PH135, 2′-fluoro-3,5-dimethoxychalcone]",2.3,2.2,4.3,1.7,2.0,1.7,1.2,1.0,3.5,2.1,1.8,83,84,0,58,50,83,88,90,76,"% TNF-α producing cells ([1]; 1b Experiment 1, LPS 0.5 μg/ml, compound 6.25 μg/ml, DMSO 13.8): 4.1%; inhibition at 6.25 µg/mL ([1]; 1b Experiment 1, LPS 0.5 μg/ml, compound 6.25 μg/ml, read-out: % inhibition): 70%; inhibition at 6.25 µg/mL [1, 23]: 86%; inhibition at 12.5 µg/mL [1, 24]: 88%; inhibition at 3.125 µg/mL ([2]; 1b Experiment 2, LPS 1 μg/ml): 96%; inhibition at 6.25 µg/mL ([2]; 1b Experiment 2, LPS 1 μg/ml): 94%; inhibition at 12.5 µg/mL ([2]; 1b Experiment 2, LPS 1 μg/ml): 94%; inhibition at 3.125 µg/mL ([2]; 1b Experiment 3, LPS 1 μg/ml): 93%; inhibition at 6.25 µg/mL ([2]; 1b Experiment 3, LPS 1 μg/ml): 92%; inhibition at 12.5 µg/mL ([2]; 1b Experiment 3, LPS 1 μg/ml): 94%; inhibition at 3.125 µg/mL ([2]; 1b Experiment 4, LPS 1 μg/ml): 99%; inhibition at 6.25 µg/mL ([2]; 1b Experiment 4, LPS 1 μg/ml): 99%; inhibition at 12.5 µg/mL ([2]; 1b Experiment 4, LPS 1 μg/ml): 98%; % IFN-γ producing cells [3]: 14.2%; inhibition of IFN-γ production ([3]; 1b Experiment 3): no inhibition; inhibition of IFN-γ production ([3]; 1b Experiment 4): no inhibition; inhibition at 12.5 µg/mL [3]: 14%"
